Data on four compounds can be found in PMC12661293 (RSC Advances, 2025).

One test addresses α-glucosidase (Saccharomyces cerevisiae, UniProt P53341). Description: In vitro α-glucosidase inhibitory assay. The note with it: for inhibition at 10 µM: read-out: %Inhibition at 10 µM; for inhibition at 40 µM: read-out: %Inhibition at 40 µM; for inhibition at 100 µM: read-out: %Inhibition at 100 µM; for inhibition at 140 µM: read-out: %Inhibition at 140 µM; for inhibition at 350 µM: read-out: %Inhibition at 350 µM; for inhibition at 400 µM: read-out: %Inhibition at 400 µM; for inhibition at 500 µM: read-out: %Inhibition at 500 µM. The format is biochemical.

A further test concerns the target T1, α-amylase (Sus scrofa, UniProt P00690).
T1 sequence (P00690 16-511): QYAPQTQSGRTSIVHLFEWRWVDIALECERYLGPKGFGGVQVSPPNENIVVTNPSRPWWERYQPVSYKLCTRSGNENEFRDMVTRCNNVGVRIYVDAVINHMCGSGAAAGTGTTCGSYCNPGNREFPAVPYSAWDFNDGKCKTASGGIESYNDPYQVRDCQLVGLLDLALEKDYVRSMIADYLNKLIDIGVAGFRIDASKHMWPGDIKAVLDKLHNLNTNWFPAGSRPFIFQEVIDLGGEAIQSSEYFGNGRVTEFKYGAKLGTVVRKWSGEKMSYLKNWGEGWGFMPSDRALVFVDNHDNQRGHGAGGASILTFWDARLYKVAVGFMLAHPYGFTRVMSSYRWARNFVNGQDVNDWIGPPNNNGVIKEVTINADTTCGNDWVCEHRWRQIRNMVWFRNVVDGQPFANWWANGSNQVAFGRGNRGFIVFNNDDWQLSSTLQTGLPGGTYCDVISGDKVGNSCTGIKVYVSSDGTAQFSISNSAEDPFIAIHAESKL
Description: In vitro α-amylase inhibitory assay. It is filed as biochemical, porcine. The note with it: for inhibition at 10 µM: read-out: %Inhibition at 10 µM; for inhibition at 40 µM: read-out: %Inhibition at 40 µM; for inhibition at 80 µM: read-out: %Inhibition at 80 µM; for inhibition at 140 µM: read-out: %Inhibition at 140 µM; for inhibition at 260 µM: read-out: %Inhibition at 260 µM; for inhibition at 400 µM: read-out: %Inhibition at 400 µM; for inhibition at 500 µM: read-out: %Inhibition at 500 µM.

In test [1] the test system is ct-DNA. Description: Spectrophotometric. It is filed as binding, calf. The following applies: ligand fixed 50 µM, ct-DNA 0–80 µM, phosphate buffer pH 7.2.
Test [2] has as its system ct-DNA. Description: Cyclic voltammetry of ligands with ct-DNA. It is filed as binding, calf. The note with it: increasing ct-DNA 10–80 µM, phosphate buffer pH 7.2.
A further test concerns EB-ct-DNA. Description: Ethidium bromide displacement fluorescence quenching with ct-DNA. The format is binding, calf.

Sequence of α-glucosidase (P53341 whole entry): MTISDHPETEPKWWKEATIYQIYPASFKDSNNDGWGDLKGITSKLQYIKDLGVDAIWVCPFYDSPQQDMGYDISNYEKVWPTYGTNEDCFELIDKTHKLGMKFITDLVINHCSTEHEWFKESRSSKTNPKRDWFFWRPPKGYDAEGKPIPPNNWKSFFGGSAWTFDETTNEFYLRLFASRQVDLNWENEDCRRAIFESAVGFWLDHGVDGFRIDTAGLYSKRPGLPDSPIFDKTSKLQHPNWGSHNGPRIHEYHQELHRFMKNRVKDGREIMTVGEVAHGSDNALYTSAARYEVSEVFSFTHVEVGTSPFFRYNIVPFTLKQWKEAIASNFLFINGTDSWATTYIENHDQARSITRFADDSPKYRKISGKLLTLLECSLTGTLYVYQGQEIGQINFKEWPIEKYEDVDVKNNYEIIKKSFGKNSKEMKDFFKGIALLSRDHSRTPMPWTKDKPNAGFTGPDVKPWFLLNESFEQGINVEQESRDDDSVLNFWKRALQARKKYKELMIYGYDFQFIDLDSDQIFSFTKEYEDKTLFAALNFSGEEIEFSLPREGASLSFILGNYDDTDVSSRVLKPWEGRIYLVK

For the compound `C[C@H]1O[C@H](O[C@H]2[C@H](O)[C@@H](O)[C@@H](O[C@H]3[C@H](O)[C@@H](O)C(O)O[C@@H]3CO)O[C@@H]2CO)[C@H](O)[C@@H](O)[C@@H]1N[C@H]1C=C(CO)[C@@H](O)[C@H](O)[C@H]1O` (stereo partly shown) [Acarbose, acarbose, reference compound], on α-glucosidase, the inhibition at 10 µM came to 2.9%, the inhibition at 40 µM was determined as 9.44%, the inhibition at 100 µM came to 13% and the inhibition at 140 µM was determined as 16.2%. In addition, at α-glucosidase, the inhibition at 350 µM stood at 81.2%, the inhibition at 400 µM was 97.2% and the inhibition at 500 µM is 97.7%. Besides, on α-amylase, the inhibition at 10 µM is 1.2%, the inhibition at 40 µM was found to be 1.6%, the inhibition at 80 µM is 6% and the inhibition at 140 µM is 26.4%. At α-amylase, the inhibition at 260 µM is 39.8%, the inhibition at 400 µM is 65.1% and the inhibition at 500 µM stood at 74.8%.

Consider `Cc1cccc(C=CC(=O)c2cnn(-c3ccccc3)c2C)c1` [L^I, 1-(5-methyl-1-phenyl-1H-pyrazol-4-yl)-3-(m-tolyl)prop-2-en-1-one], for which, at α-glucosidase, the IC50 amounted to 394 µM.

With `Cc1c(C(=O)C=Cc2ccc(Cl)cc2Cl)cnn1-c1ccccc1` [L^II, 3-(2,4-dichlorophenyl)-1-(5-methyl-1-phenyl-1H-pyrazol-4-yl)prop-2-en-1-one], the IC50 against α-glucosidase amounted to 215 µM.

In the case of `Cc1c(C(=O)C=Cc2cccc([N+](=O)[O-])c2)cnn1-c1ccccc1` [L^III, 1-(5-methyl-1-phenyl-1H-pyrazol-4-yl)-3-(3-nitrophenyl) prop-2-en-1-one], in the test with ct-DNA [1], the “Binding constant (kb)” value is 15590 M⁻¹ and the Interaction mode entry is “Intercalative”. Further, on α-glucosidase, it took 281 µM to reach half-maximal inhibition (IC50), the inhibition at 10 µM came to 9.36%, the inhibition at 40 µM stood at 10.8% and the inhibition at 100 µM was 21.4%. At α-glucosidase, the inhibition at 140 µM came out at 32.4%, the inhibition at 350 µM was 67%, the inhibition at 400 µM is 71.5% and the inhibition at 500 µM amounted to 74.1%. The compound further gave an IC50 on α-amylase (IC50 α-amylase) of 984 µM. Besides, on α-amylase, the inhibition at 10 µM stood at 9.1%, the inhibition at 40 µM turned out to be 9.5%, the inhibition at 80 µM was 11% and the inhibition at 140 µM was 12%. Besides, on α-amylase, the inhibition at 260 µM came to 16.8%, the inhibition at 400 µM was 26% and the inhibition at 500 µM amounted to 28.9%. In addition, the “Binding mode from cyclic voltammetry” value with ct-DNA [2] is on record as “intercalation”. For the same compound, the “Quenching constant (Ksv)” value in the test with EB-ct-DNA (Stern–Volmer) was 3030 M⁻¹. Besides, the “Binding constant (Kb)” value in the test on EB-ct-DNA (modified Stern–Volmer) was determined as 4315.8 M⁻¹.
